Reference: US7494821B2, “Fluorescein based sensors for tracking nitric oxide in live cells” (Massachusetts Institute of Technology, priority 2005, dated 2009)

Experiment: Cu(II) binding of FL5 (UV-vis titration with CuCl2; fluorescence quenching)
Conditions: 1 μM FL5 solution, 37° C.
Procedure: Derivatized fluorescein molecules are excellent biosensors because they excite and emit in a region of the visible spectrum that is relatively free of interference. We prepared the fluorescein-based ligand FL5 (FIG. 4) by reacting 7′-chloro-4′-fluorescein-carboxaldehyde with 8-aminoquinaldine. We generated the Cu(II) fluorescein-based NO probe Cu(FL5) (FIG. 4) in situ reacting FL5 (prepared as described below) awith CuCl2 in a 1:1 ratio in buffered aqueous solution (50 mM PIPES, pH 7.0, 100 mM KCl). […] A Job's plot was constructed to evaluate the nature of the FL5:Cu(II) complex by following the UV-vis absorption spectral change at 512 nm in pH 7.0 buffered solution. A break at 0.5 indicated the formation of a 1:1 complex.
The fluorescence of a 1 μM FL5 solution was diminished by 18±3% upon introduction of an equimolar quantity of CuCl2 at 37° C. Addition of excess NO to a buffered aqueous Cu(FL5) solution led to an immediate 11.2±1.5-fold increase in fluorescence (FIG. 5). […] The lower detection limit for NO is 5 nM.

## Cc1ccc2cccc(NCc3c(O)ccc4c(-c5ccccc5C(=O)O)c5cc(Cl)c(=O)cc-5oc34)c2n1 [FL5, 2-{2-chloro-6-hydroxy-5-[(2-methyl-quinolin-8-ylamino)-methyl]-3-oxo-3H-xanthen-9-yl}-benzoic acid]
  fluorescence diminished upon introduction of equimolar CuCl2: 18±3%
